Results reported in the supplement of paper PMC11061612.

How the values were obtained:
[1] = test system: HCC-15 (Squamous Cell Lung Carcinoma); test: combination Emax (second highest fraction inhibited in the dose matrix, 72 h); higher = more inhibition; extreme values may be limits of the assay
Procedure, shortened: (§1)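 After 24 hours at 37°C and 5% CO2 in 1536-well plates, cells in DMEM/F12 or RPMI plus 10% FBS received two-drug dose matrices for 72 hours. Viability came from CellTiter-Glo 2.0 luminescence and was scaled as inhibition, anchored at 0 by vehicle wells and at 1 by blank wells. Combination Emax is taken as the second-highest inhibition in the matrix, and Bliss excess as the observed combination effect less EA + EB − EA·EB, with EA and EB the single-agent effects.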

[2] = test system: TE-4 (Esophageal Squamous Cell Carcinoma); test: as above
Procedure, shortened: as §1

[3] = test system: OC-314 (Ovarian Carcinoma); test: as above
Procedure, shortened: as §1

[4] = test system: Hs-633T (Other Solid Carcinomas); test: as above
Procedure, shortened: as §1

COLO-829 (Melanoma) [5] = test: as above
Procedure, shortened: as §1

[6] = test system: KARPAS-231 (B-Cell Non-Hodgkin's Lymphoma); test: as above
Procedure, shortened: as §1

NCI-H2461 (Mesothelioma) = test: as above
Procedure, shortened: as §1

[7] = test system: CAL-51 (Breast Carcinoma); test: as above
Procedure, shortened: as §1

[8] = test system: SK-OV-3 (Ovarian Carcinoma); test: as above
Procedure, shortened: as §1

[9] = test system: LoVo (Colorectal Carcinoma); test: as above
Procedure, shortened: as §1

[10] = test system: RT-112 (Bladder Carcinoma); test: as above
Procedure, shortened: as §1

[11] = test system: HDLM-2 (Hodgkin's Lymphoma); test: as above
Procedure, shortened: as §1

[12] = test system: SUP-T1 (T-Lymphoblastic Leukemia); test: as above
Procedure, shortened: as §1

[13] = test system: SU-DHL-6 (B-Cell Non-Hodgkin's Lymphoma); test: as above
Procedure, shortened: as §1

SH-4 (Melanoma) [14] = test: as above
Procedure, shortened: as §1

[15] = test system: NCI-H69 (Small Cell Lung Carcinoma); test: as above
Procedure, shortened: as §1

[16] = test system: RPMI-6666 (Non-Cancerous); test: Bliss excess, mean over the matrix (fraction); higher = more synergy
Procedure, shortened: as §1

[17] = test system: CTB-1 (B-Cell Non-Hodgkin's Lymphoma); test: as above
Procedure, shortened: as §1

COLO-829 (Melanoma) [18] = test: as above
Procedure, shortened: as §1

SH-4 (Melanoma) [19] = test: as above
Procedure, shortened: as §1
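For Bliss excess, mean over the matrix in this document: after 72 h of two-drug dosing.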

CC1(C)CCC(CN2CCN(c3ccc(C(=O)NS(=O)(=O)c4ccc(NCC5CCOCC5)c([N+](=O)[O-])c4)c(Oc4cnc5[nH]ccc5c4)c3)CC2)=C(c2ccc(Cl)cc2)C1 [Venetoclax] + COc1cc(Nc2ncc3c(n2)-c2ccc(Cl)cc2C(c2c(F)cccc2OC)=NC3)ccc1C(=O)O [Alisertib] (first compound max 1 µM, 7x7, partner max 10 µM)
combination Emax [1]: 0.86
combination Emax [2]: 0.194
combination Emax [3]: 0.504
combination Emax [4]: 0.44
combination Emax (COLO-829 (Melanoma) [5]): 0.252
combination Emax [6]: 1
combination Emax (NCI-H2461 (Mesothelioma)): 0.459
combination Emax [7]: 0.574
combination Emax [8]: 0.315
combination Emax [9]: 0.48
combination Emax [10]: 0.673
combination Emax [11]: 0.643
combination Emax [12]: 0.611
combination Emax [13]: 0.96
combination Emax (SH-4 (Melanoma) [14]): 0.146
combination Emax [15]: 0.837
Bliss excess [16]: 0.0702
Bliss excess [17]: -0.0467
Bliss excess (COLO-829 (Melanoma) [18]): -0.0548
Bliss excess (SH-4 (Melanoma) [19]): -0.0234

COc1cc2c(cc1OCCCCCOc1cc3c(cc1OC)C(=O)N1C=C(C)C[C@H]1C=N3)N=C[C@@H]1CC(C)=CN1C2=O [SG3199] + O=C(c1cc(Cc2n[nH]c(=O)c3ccccc23)ccc1F)N1CCN(C(=O)C2CC2)CC1 [Olaparib] (first compound max 0.001 µM, 7x7, partner max 10 µM)
combination Emax [1]: 0.145
combination Emax [2]: 0.233
combination Emax [3]: 0.205
combination Emax [4]: 0.142
combination Emax (COLO-829 (Melanoma) [5]): 0.129
combination Emax [6]: 0.262
combination Emax (NCI-H2461 (Mesothelioma)): 0.11
combination Emax [7]: 0.202
combination Emax [8]: 0.0705
combination Emax [9]: 0.14
combination Emax [10]: 0.1
combination Emax [11]: 0.167
combination Emax [12]: 0.442
combination Emax [13]: 0.171
combination Emax (SH-4 (Melanoma) [14]): 0.181
combination Emax [15]: 0.242
Bliss excess [16]: 0.0028
Bliss excess [17]: -0.043
Bliss excess (COLO-829 (Melanoma) [18]): -0.0476
Bliss excess (SH-4 (Melanoma) [19]): -0.027

Cc1c2c(nn1C)CSCc1cc(n(C)n1)CSc1cc(c3ccccc3c1)OCCCc1c(C(=O)O)n(C)c3c-2c(Cl)ccc13 [AZD5991] + Cn1cnc2c(F)c(Nc3ccc(Br)cc3Cl)c(C(=O)NOCCO)cc21 [Selumetinib] (first compound max 1 µM, 7x7, partner max 3 µM)
combination Emax [1]: 0.563
combination Emax [2]: 0.453
combination Emax [3]: 0.245
combination Emax [4]: 0.64
combination Emax (COLO-829 (Melanoma) [5]): 0.907
combination Emax [6]: 1
combination Emax (NCI-H2461 (Mesothelioma)): 0.359
combination Emax [7]: 0.406
combination Emax [8]: 0.333
combination Emax [9]: 0.565
combination Emax [10]: 1
combination Emax [11]: 0.995
combination Emax [12]: 0.236
combination Emax [13]: 1
combination Emax (SH-4 (Melanoma) [14]): 0.96
combination Emax [15]: 0.218
Bliss excess [16]: 0.0387
Bliss excess [17]: -0.02
Bliss excess (COLO-829 (Melanoma) [18]): 0.0295
Bliss excess (SH-4 (Melanoma) [19]): 0.0465

Cc1cc2ncnn2cc1Nc1ncc2c(n1)n(C1CCOCC1)c(=O)n2C [AZD7648] + O=C(c1cc(Cc2n[nH]c(=O)c3ccccc23)ccc1F)N1CCN(C(=O)C2CC2)CC1 [Olaparib] (first compound max 10 µM, 7x7, partner max 10 µM)
combination Emax [1]: 0.129
combination Emax [2]: 0.167
combination Emax [3]: 0.24
combination Emax [4]: 0.313
combination Emax (COLO-829 (Melanoma) [5]): 0.119
combination Emax [6]: 0.269
combination Emax (NCI-H2461 (Mesothelioma)): 0.278
combination Emax [7]: 0.265
combination Emax [8]: 0.173
combination Emax [9]: 0.533
combination Emax [10]: 0.143
combination Emax [11]: 0.155
combination Emax [12]: 0.465
combination Emax [13]: 0.346
combination Emax (SH-4 (Melanoma) [14]): 0.179
combination Emax [15]: 0.337
Bliss excess [16]: -0.0545
Bliss excess [17]: -0.0489
Bliss excess (COLO-829 (Melanoma) [18]): -0.0378
Bliss excess (SH-4 (Melanoma) [19]): -0.0401

CN(CCO)CC[C@H](CSc1ccccc1)Nc1ccc(S(=O)(=O)NC(=O)c2ccc(N3CCC([C@@H](O)c4ccccc4-c4ccc(Cl)cc4)CC3)cc2)cc1S(=O)(=O)C(F)(F)F [AZD4320] + CN(C)CCCOc1ccc(-c2ccc3ncc4c(c3c2)n(C2CCOCC2)c(=O)n4C)cn1 [AZD0156] (first compound max 1 µM, 7x7, partner max 1 µM)
combination Emax [1]: 0.936
combination Emax [2]: 0.0906
combination Emax [3]: 0.165
combination Emax [4]: 0.163
combination Emax (COLO-829 (Melanoma) [5]): 0.0619
combination Emax [6]: 0.997
combination Emax (NCI-H2461 (Mesothelioma)): 0.259
combination Emax [7]: 0.16
combination Emax [8]: 0.346
combination Emax [9]: 0.287
combination Emax [10]: 0.188
combination Emax [11]: 0.785
combination Emax [12]: 0.385
combination Emax [13]: 0.986
combination Emax (SH-4 (Melanoma) [14]): 0.16
combination Emax [15]: 0.86
Bliss excess [16]: -0.0597
Bliss excess [17]: -0.0376
Bliss excess (COLO-829 (Melanoma) [18]): -0.0481
Bliss excess (SH-4 (Melanoma) [19]): -0.0238

COc1cccc(OCCCN)c1-c1cc(Nc2cnc(C#N)cn2)n[nH]1 [Prexasertib] + C=CCn1c(=O)c2cnc(Nc3ccc(N4CCN(C)CC4)cc3)nc2n1-c1cccc(C(C)(C)O)n1 [AZD1775] (first compound max 1 µM, partner max 1 µM)
combination Emax [1]: 0.542
combination Emax [2]: 0.813
combination Emax [3]: 0.98
combination Emax [4]: 0.973
combination Emax (COLO-829 (Melanoma) [5]): 0.237
combination Emax [6]: 0.989
combination Emax (NCI-H2461 (Mesothelioma)): 0.745
combination Emax [7]: 0.95
combination Emax [8]: 0.875
combination Emax [9]: 0.894
combination Emax [10]: 1
combination Emax [11]: 0.612
combination Emax [12]: 0.848
combination Emax [13]: 0.955
combination Emax (SH-4 (Melanoma) [14]): 0.742
combination Emax [15]: 0.955
Bliss excess [16]: 0.0119
Bliss excess [17]: 0.0374
Bliss excess (COLO-829 (Melanoma) [18]): -0.0067
Bliss excess (SH-4 (Melanoma) [19]): 0.0591
